Measurements: patent publication US20010051167A1, “USE OF 17-ALPHA-ESTRADIOL FOR THE TREATMENT OF AGED OR SUNDAMAGED SKIN AND/OR SKIN ATROPHY” (priority 1997, published 2001)

Legend:
[1] = test system: UV-photodamaged dorsal trunk skin of albino hairless mice (Skh-1); assay: Dermal repair zone depth in UV-photodamaged hairless mouse skin after topical treatment; assay type: in vivo
Text: In one method, a deficit in connective tissue synthesis is induced by long-term exposure of mouse skin to ultraviolet (UV) radiation. […] The repair can be visualized as a region of new connective tissue which forms as a subepidermal band in the papillary dermis after topical retinoid treatment (Kligman LH, Chapter 10: Animal Models of Photodamage and Its Treatment, pp. 136-156, In: Photodamage, edited by B. A. Gilchrest, 1995, Blackwell Science, Cambridge, Mass.). The old malformed elastotic tissue, produced during UV exposure, is compressed by the retinoid-induced new connective tissue zone.
Connective tissue photodamage was induced in albino hairless mice (Skh-1) (six to eight weeks old) by exposure of dorsal trunk skin to UV from FS40 fluorescent tubes, three days per week (Monday, Wednesday, Friday) for ten weeks. The UV dose started with one minimal erythemal dose (MED) and was increased gradually to 4.5 MEDs by week 5 and then continued at 4.5 MEDs for five more weeks. At the beginning of week 11, mice were treated topically with 0.1 mL test material on the dorsal trunk skin, three times per week (Monday, Wednesday, Friday) for 6 to 10 weeks. At the end of treatment, dorsal skin was excised and placed in 10% buffered formalin. The specimens were embedded, sectioned and stained with Luna's aldehyde fuchsin for elastic fibers. The dermal repair zone, defined as the area from the epidermal-dermal junction to the top of the compressed elastotic material, was quantified by measuring the depth of the zones with an image analyzer. […]

[2] = test system: epidermis of albino hairless mice (Skh-1); assay: Thickness of the epidermis after 10 weeks of topical treatment; assay type: in vivo, mouse
[3] = test system: skin of albino hairless mice (Skh-1); assay: Estrogen-induced thickening of the skin (double skin-fold thickness); assay type: in vivo, mouse; conditions: Example 4, 3 days of topical treatment
Procedure: In the second method, topical estrogens increase the thickness of the entire skin by enhancing its water content. This is due to estrogen-stimulated increases in hyaluronic acid, which is a biomolecule that has an avid water binding capacity (Grosman et al. Acta Pharmacol. Toxicol., 1971, Vol. 30, pp. 458-464). Estrogen-induced thickening of the skin was assessed in albino hairless mice (Skh-1). The skin is topically treated for 3 days with 0.1 mL test material. The next day after the last dose, double skin-fold thickness is measured with an engineer's vernier calipers. This example compares the effects of 17-α-Estradiol and 17-β-Estradiol on skin thickening after 3 days of topical treatment.

[4] = test system: markers of reproductive function; conditions: humans; administered subcutaneously; cited from earlier work
[5] = Example 2, topical dose 0.1%, 10 Weeks
[6] = Example 3, topical dose 0.01%, 10 weeks

**Q.** Which “Repair Zone Depth (μm) ± SE” value ([1]; Example 1, topical dose 0.01%, 10 weeks, 0.1 mL three times per week) does the source give for `C[C@]12CC[C@@H]3c4ccc(O)cc4CC[C@H]3[C@@H]1CC[C@@H]2O` [17-β-estradiol] here?
**A.** 57.4 ± 6.1 μm

**Q.** And the “Repair Zone Depth (μm) ± SE” value ([1]; Example 2, topical dose 0.1%, 6 Weeks)?
**A.** 46.3 ± 0.9 μm

**Q.** And the “Repair Zone Depth (μm) ± SE” value [1, 5]?
**A.** 38.7 ± 2.5 μm

**Q.** And the “Repair Zone Depth (μm) ± SE” value ([1]; Example 3, topical dose 0.005%, 10 weeks)?
**A.** 45.2 ± 3.1 μm

**Q.** And the “Repair Zone Depth (μm) ± SE” value [1, 6]?
**A.** 53.4 ± 2.1 μm

**Q.** And the “Repair Zone Depth (μm) ± SE” value ([1]; Example 3, topical dose 0.1%, 10 weeks)?
**A.** 68.2 ± 6.0 μm

**Q.** And the “Epidermal Thickness (μm) ± SE” value ([2]; Example 5, topical dose 0.005%)?
**A.** 32.0 ± 1.2 μm

**Q.** And the “Epidermal Thickness (μm) ± SE” value ([2]; Example 5, topical dose 0.01%)?
**A.** 28.3 ± 1.8 μm

**Q.** And the “Epidermal Thickness (μm) ± SE” value ([2]; Example 5, topical dose 0.1%)?
**A.** 48.1 ± 2.9 μm

**Q.** What about the Skin-Fold Thickness (mm) ± SE ([3]; topical dose 0.001%) of the same compound?
**A.** 1.25 ± 0.08 mm

**Q.** What about the Skin-Fold Thickness (mm) ± SE ([3]; topical dose 0.01%) of the same compound?
**A.** 1.62 ± 0.11 mm

**Q.** What about the Skin-Fold Thickness (mm) ± SE ([3]; topical dose 0.1%) of the same compound?
**A.** 1.5 ± 0.13 mm

**Q.** For `CC1=C(/C=C/C(C)=C/C=C/C(C)=C/C(=O)O)C(C)(C)CCC1` [All-trans-retinoic acid], which “Repair Zone Depth (μm) ± SE” value ([1]; Example 1, topical dose 0.03%, 10 weeks, 0.1 mL three times per week) is on record?
**A.** 72.0 ± 2.6 μm

**Q.** And the “Repair Zone Depth (μm) ± SE” value ([1]; Example 2, topical dose 0.03%, 6 Weeks)?
**A.** 44.5 ± 3.9 μm

**Q.** And the “Repair Zone Depth (μm) ± SE” value ([1]; Example 2, topical dose 0.03%, 10 Weeks)?
**A.** 59.0 ± 2.3 μm

**Q.** And the “Repair Zone Depth (μm) ± SE” value ([1]; Example 3, topical dose 0.03%, 10 weeks)?
**A.** 72.0 ± 3.3 μm

**Q.** And the “Epidermal Thickness (μm) ± SE” value ([2]; Example 5, topical dose 0.03%)?
**A.** 52.8 ± 3.6 μm

**Q.** For `C[C@]12CCC3c4ccc(O)cc4CCC3C1CC[C@H]2O` (stereo partly drawn) [17-α-estradiol], which “biological activity on markers of reproductive function” value [4] is on record?
**A.** lacked biological activity

**Q.** What about the “Repair Zone Depth (μm) ± SE” value ([1]; Example 1, topical dose 0.50%, 10 weeks, 0.1 mL three times per week) of the same compound?
**A.** 71.8 ± 3.0 μm

**Q.** And the “Repair Zone Depth (μm) ± SE” value ([1]; Example 2, topical dose 0.05%, 10 Weeks)?
**A.** 36.8 ± 2.4 μm

**Q.** What about the “Repair Zone Depth (μm) ± SE” value [1, 5] of the same compound?
**A.** 44.3 ± 2.3 μm

**Q.** What about the “Repair Zone Depth (μm) ± SE” value ([1]; Example 2, topical dose 0.5%, 6 Weeks) of the same compound?
**A.** 44.6 ± 2.7 μm

**Q.** What about the “Repair Zone Depth (μm) ± SE” value ([1]; Example 2, topical dose 0.5%, 10 Weeks) of the same compound?
**A.** 51.6 ± 3.5 μm

**Q.** And the “Repair Zone Depth (μm) ± SE” value [1, 6]?
**A.** 49.4 ± 3.7 μm

**Q.** And the “Repair Zone Depth (μm) ± SE” value ([1]; Example 3, topical dose 0.05%, 10 weeks)?
**A.** 34.3 ± 3.7 μm

**Q.** And the “Repair Zone Depth (μm) ± SE” value ([1]; Example 3, topical dose 0.5%, 10 weeks)?
**A.** 62.4 ± 4.2 μm

**Q.** What about the “Epidermal Thickness (μm) ± SE” value ([2]; Example 5, topical dose 0.05%) of the same compound?
**A.** 29.3 ± 0.3 μm

**Q.** What about the “Epidermal Thickness (μm) ± SE” value ([2]; Example 5, topical dose 0.1%) of the same compound?
**A.** 37.3 ± 1.8 μm

**Q.** And the “Epidermal Thickness (μm) ± SE” value ([2]; Example 5, topical dose 0.5%)?
**A.** 42.9 ± 3.8 μm

**Q.** And the Skin-Fold Thickness (mm) ± SE ([3]; topical dose 0.01%)?
**A.** 1.16 ± 0.07 mm

**Q.** And the Skin-Fold Thickness (mm) ± SE ([3]; topical dose 0.1%)?
**A.** 1.43 ± 0.06 mm

**Q.** And the Skin-Fold Thickness (mm) ± SE ([3]; topical dose 0.5%)?
**A.** 1.52 ± 0.14 mm
